Measurements taken from US8158621B2, “Methods of treating or preventing autoimmune diseases with 2,4-pyrimidinediamine compounds” (Rigel Pharmaceuticals, Inc., priority 2002, dated 2012).

Each compound was assayed on Human Jurkat T-cells (clone N) (assay: Jurkat T-cell activation (anti-TCR, CD69 upregulation)). Conditions: not given.
Type: cell-based
In short: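 Readout is CD69 upregulation by flow cytometry (anti-CD69-APC, 20 min at 4 °C) after 20 h anti-TCR (C305, 500 ng/ml) stimulation at 37 °C.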

IC50	Compound
9.91 µM	Fc1cnc(Nc2ccc(N3CCOCC3)cc2)nc1Nc1ccc(N2CCOCC2)cc1 [Compound R926114]
> 10 µM	CCOC(=O)COc1cccc(Nc2ncc(F)c(Nc3ccc(-n4cnc(Cl)c4Cl)cc3)n2)c1 [Compound R926809]
3.68 µM	Cc1ccc(Nc2ncc(F)c(Nc3ccc(C)c(O)c3)n2)cc1O [Compound R926341]
8.26 µM	CCOC(=O)COc1cccc(Nc2ncc(F)c(Nc3ccc4c(c3)OCCO4)n2)c1 [Compound R926482]
3.33 µM	CNC(=O)COc1cccc(Nc2ncc(F)c(Nc3ccc4c(c3)N(C)C(=O)CO4)n2)c1 [Compound R909260]
3.32 µM	COC(=O)c1cc(Nc2ncc(F)c(Nc3ccc(OC(C)C)cc3)n2)cn1C [Compound R935164]
3.21 µM	Cn1nnc(COc2ccc(Nc3nc(Nc4ccc(OCc5nnnn5C)cc4)ncc3F)cc2)n1 [Compound R945047]
5.89 µM	COC(=O)c1ccc(Cn2cc3ccc(Nc4ncc(F)c(Nc5ccc(OC(C)C)cc5)n4)cc3n2)c(OC)c1 [Compound R935338]
8.93 µM	CN1CCN(C(=O)CNc2cccc(Nc3ncc(F)c(Nc4cccc(NCCO)c4)n3)c2)CC1 [Compound R950240]
41.9 µM	CCCCNC(=O)COc1ccc(Nc2ncc(C#N)c(Nc3ccc(OCC(=O)NCCCC)cc3)n2)cc1 [Compound R925860]
> 10 µM	CNCCNC(=O)c1cc2cc(Nc3ncc(F)c(Nc4ccc5oc(C(=O)NCCNC)cc5c4)n3)ccc2o1 [Compound R950170]
1.71 µM	CNC(=O)COc1cccc(Nc2ncc(F)c(Nc3cnc4c(c3)OCC(=O)N4)n2)c1 [Compound R945242]
3.76 µM	Cc1cc(Nc2nc(Nc3cccc(OCC(=O)N4CCOCC4)c3)ncc2F)cc(C)c1O [Compound R940254]
> 10 µM	CCOC(=O)COc1ccc(Nc2nc(Nc3ccc(OCC(=O)OCC)cc3)c(N)c(C(=O)OCC)n2)cc1 [Compound R926567]
3.7 µM	O=C(COc1cccc(Nc2ncc(F)c(Nc3cccc(O)c3)n2)c1)NCC(O)CO (centres unmarked) [Compound R926746]
3.28 µM	CNCc1cccc(Nc2nc(Nc3cccc(OCC(=O)NC)c3)ncc2F)c1 [Compound R940317]
> 10 µM	COC(=O)c1cc(Nc2nc(Nc3ccc4c(c3)OCCO4)ncc2F)cn1C [Compound R935166]
0.655 µM	O=C(COc1cccc(Nc2ncc(F)c(Nc3ccc4c(c3)NCCO4)n2)c1)NCCCO [Compound R909252]
0.891 µM	Oc1cccc(Nc2nc(Nc3ccc4oc(CN5CCNCC5)cc4c3)ncc2F)c1 [Compound R926770]
1.65 µM	CNC(=O)COc1cccc(Nc2ncc(F)c(Nc3cccc(C(=NO)c4ccccc4)c3)n2)c1 [Compound R950374]
> 10 µM	N#CCOc1ccc(Nc2nc(Nc3ccc(OCC(=O)O)cc3)ncc2F)cc1 [Compound R945097]
6.26 µM	O=C(CNc1cccc(Nc2ncc(F)c(Nc3cccc(NCCO)c3)n2)c1)NCCNCc1ccccc1 [Compound R950235]
5.7 µM	CNC(=O)CCn1ncc2ccc(Nc3ncc(F)c(Nc4ccc5oc(C(=O)NC)cc5c4)n3)cc21 [Compound R935297]
2.23 µM	Cn1nnnc1COc1ccc(Nc2ncc(F)c(Nc3ccc(OCc4nnnn4C)cc3)n2)cc1 [Compound R945048]
18.6 µM	CC1(C)COC(COc2ccc(Nc3ncc(F)c(Nc4cccc(O)c4)n3)cc2)=N1 [Compound R926702]
11.4 µM	CNC(=O)COc1cccc(Nc2ncc(F)c(Nc3ccc(OC)c(CO)c3)n2)c1 [Compound R950386]

IC50	Compound
1.28 µM	O=C(COc1cccc(Nc2ncc(F)c(Nc3ccc4c(c3)OCCO4)n2)c1)NCCOC(=O)CCCCC1SCC2NC(=O)NC21 (centres unmarked) [Compound R926811]
> 10 µM	Cc1cnc(Nc2ccc(OCc3nnn[nH]3)cc2)nc1Nc1cccc(O)c1 [Compound R920820]
0.858 µM	CNC(=O)COc1cccc(Nc2ncc(F)c(Nc3ccc4c(c3)-n3ccnc3CO4)n2)c1 [Compound R935271]
> 10 µM	COC(=O)COc1ccc(Nc2ncc(F)c(Nc3ccc(OCC(=O)OC(C)(C)C)cc3)n2)cc1 [Compound R926572]
2.69 µM	OCCNc1cccc(Nc2ncc(F)c(Nc3cccc(NCCO)c3)n2)c1 [Compound R950181]
3.1 µM	CNC(=O)COc1cc(Nc2ncc(F)c(Nc3cccc(O)c3)n2)ccc1OC [Compound R926829]
> 10 µM	Nc1cccc(Nc2nc(Nc3cccc(NC(=O)CCC(C(=O)O)N4C(=O)c5ccccc5C4=O)c3)ncc2F)c1 (racemic) [Compound R950251]
7.06 µM	COC(=O)Cn1ncc2cc(Nc3ncc(F)c(Nc4ccc5c(cnn5CC(=O)OC)c4)n3)ccc21 [Compound R935211]
5.53 µM	COC(=O)COc1cc(O)cc(Nc2ncc(F)c(Nc3cccc(O)c3)n2)c1 [Compound R926927]
> 10 µM	CCOC(=O)COc1ccc(Nc2nc(Cl)cc(NCC(=O)OC)n2)cc1 [Compound R926555]
> 10 µM	N#Cc1cnc(Nc2ccc(OCC(=O)NCC(O)CO)cc2)nc1Nc1cccc(O)c1 (centres unmarked) [Compound R925846]
4.47 µM	CNC(=O)COc1cccc(Nc2ncc(F)c(Nc3cnc4c(c3)OCCN4)n2)c1 [Compound R945263]
> 10 µM	CNC(=O)COc1cccc(Nc2ncc(F)c(Nc3ccc4c(c3)CNCC4)n2)c1 [Compound R926914]
> 10 µM	CC(C)(C)c1cccc(Nc2nc(Nc3cccc(OCC(=O)O)c3)ncc2F)c1 [Compound R940280]
2.08 µM	CNCCNC(=O)CNc1cccc(Nc2ncc(F)c(Nc3ccc4c(c3)OCCO4)n2)c1 [Compound R950196]
> 10 µM	CSc1nc2ccc(Nc3ncc(F)c(Nc4ccc5nc(SC)sc5c4)n3)cc2s1 [Compound R950202]
3.65 µM	CC(C)c1cccc(Nc2nc(Nc3cccc(OCCO)c3)ncc2F)c1 [Compound R940289]
2.22 µM	CNC(=O)COc1cccc(Nc2ncc(F)c(Nc3cccc(OC)c3)n2)c1 [Compound R926738]
2.54 µM	COC(=O)c1ccc(Cn2cc3ccc(Nc4ncc(F)c(Nc5cccc(O)c5)n4)cc3n2)c(OC)c1 [Compound R935337]
1.56 µM	CN(C)C(=O)COc1cccc(Nc2ncc(F)c(Nc3ccc4c(c3)NCCO4)n2)c1 [Compound R909290]
20.4 µM	CCOC(=O)C(C)(C)c1ccc(Nc2ncc(F)c(Nc3ccc(OC(C)C)cc3)n2)cc1 [Compound R935150]
2.29 µM	COc1c(C)cc(Nc2nc(Nc3cccc(OCC(=O)N4CCNCC4)c3)ncc2F)cc1C [Compound R945156]
> 10 µM	COC(=O)COc1ccc(Nc2ncc(C)c(Nc3ccc(OCC(=O)OC)cc3)n2)cc1 [Compound R926258]
3.33 µM	O=C(c1cc2cc(Nc3ncc(F)c(Nc4ccc5c(c4)OCCO5)n3)ccc2o1)N1CCOCC1 [Compound R926492]
1.14 µM	CNC(=O)COc1cccc(Nc2ncc(F)c(Nc3ccc(OC)nc3)n2)c1 [Compound R926886]
> 10 µM	COC(=O)C(C)Oc1ccc(Nc2ccnc(Nc3ccc(OC(C)C(=O)OC)cc3)n2)cc1 (racemic) [Compound R926257]

Compound	IC50
CNC(=O)COc1cccc(Nc2ncc(F)c(Nc3ccc4c(c3)OCCO4)n2)c1 [Compound R926816]	0.739 µM

Same assay, conditions: Homo sapiens, Jurkat

IC50	Compound
> 10 µM	COc1ccc(C(Nc2ncc(F)c(NC(c3ccc(OC)cc3)c3ccc(OC)cc3)n2)c2ccc(OC)cc2)cc1 [Compound R935004]
> 10 µM	Fc1ccc(Nc2ncc(F)c(Nc3ccc(F)c(Cl)c3)n2)cc1Cl [Compound R926223]
> 10 µM	Cc1ccc(CNc2ncc(F)c(Nc3ccc4c(c3)OCCO4)n2)cc1Cl [Compound R908696]
0.838 µM	O=C1CCNC2=COc3ccc(Nc4nc(Nc5cccc(O)c5)ncc4F)cc3N12 [Compound R945237]
> 10 µM	CCOC(=O)C1CCN(C(=O)c2cccc(Nc3ncc(F)c(Nc4cccc(O)c4)n3)c2)CC1 [Compound R926939]
> 10 µM	COc1ccc(OCCNc2ncc(F)c(Nc3ccc4c(c3)OCCO4)n2)cc1 [Compound R950204]
3.57 µM	OCC(O)COc1ccc(Nc2ncc(F)c(Nc3cccc(O)c3)n2)cc1 (centres unmarked) [Compound R935180]
3.24 µM	CN1C(=O)COc2cc(Nc3nc(Nc4cccc(O)c4)ncc3F)ccc21 [Compound R909264]
4.66 µM	Oc1ccc(-c2cnc(Nc3ccc4c(c3)OCCO4)nc2Nc2ccc3c(c2)OCCO3)cc1 [Compound R925816]
> 10 µM	CC(C)(C)c1ccc(Nc2nc(Nc3ccc4oc(C(=O)O)cc4c3)ncc2F)cc1 [Compound R926481]
> 10 µM	COc1cc(Nc2nc(Cl)ncc2F)c(OC)cc1Cl [Compound R926858]
> 10 µM	Cc1c(O)cccc1Nc1ncc(F)c(Nc2cccc(O)c2C)n1 [Compound R945038]
> 10 µM	Oc1cccc(Nc2ncc(F)c(Nc3cccc(C4=NN(c5ccccc5)CO4)c3)n2)c1 [Compound R926866]
> 10 µM	Fc1cnc(Nc2cccc(Cl)c2)nc1Nc1cccc(Cl)c1 [Compound R926209]
> 10 µM	CCOc1ccc(Nc2cc(C(=O)OC)nc(Nc3ccc(OCC)cc3)n2)cc1 [Compound R926058]
> 10 µM	COc1ccc(Nc2nc(Nc3cccc(C(C)(C)C)c3)ncc2F)cc1OC [Compound R940260]
> 10 µM	Oc1cccc(Nc2nc(NCC3COc4ccccc4O3)ncc2F)c1 (centres unmarked) [Compound R950214]
8.65 µM	Oc1ccc(CCNc2ncc(Br)c(NCCc3ccc(O)cc3)n2)cc1 [Compound R925792]
0.56 µM	COc1ccc(Nc2ncc(F)c(Nc3ccc4c(c3)OCCO4)n2)cc1OC [Compound R926212]
9.97 µM	Cc1cc(Nc2ncc(F)c(Nc3ccc4c(c3)OCCO4)n2)c(C)cc1O [Compound R926792]
17.1 µM	Fc1cnc(Nc2ccc3c(c2)OCO3)nc1Nc1ccc2c(c1)OCO2 [Compound R925776]
> 10 µM	c1ccc(-c2cnc(Nc3ccc4c(c3)OCCO4)nc2Nc2ccc3c(c2)OCCO3)cc1 [Compound R925784]
1.87 µM	CCOC(=O)c1cc2cc(Nc3ncc(F)c(Nc4cccc(O)c4)n3)ccc2[nH]1 [Compound R926615]
> 10 µM	Oc1cccc(Nc2nc(NCCc3c[nH]c4ccccc34)ncc2F)c1 [Compound R945117]
